Laboratory results: publication PMC11062894, “Protein-based bandpass filters for controlling cellular signaling with chemical inputs” (Nature Chemical Biology, 2023)
Values joined by “and” are separate entries in the source; they are usually repeats but may differ in a detail not shown here. Identical values can stand only once.

Test system: GEMS receptors with CBPvene (Bcl2–LD3 and Bcl2high variants), STAT3-driven SEAP in HEK293T cells
Experiment: GEMS SEAP reporter assay, CBPvene (Bcl2high, LD3-v and Bcl2-v variants) with venetoclax
Format: cell-based
[1] = CBPVene-v4-LD3v1, Venetoclax 10 nM
[2] = CBPVene-v4-LD3v1, Venetoclax 31.6 nM
[3] = CBPVene-v4-LD3v1, Venetoclax 100 nM
[4] = CBPVene-v4-LD3v1, Venetoclax 316 nM
[5] = CBPVene-v4-LD3v1, Venetoclax 1000 nM
[6] = CBPVene-v4-LD3v1, Venetoclax 3160 nM
[7] = CBPVene-v4-LD3v1, Venetoclax 10000 nM
[8] = CBPVene-v5, Venetoclax 10000 nM
[9] = CBPVene-v5-Bcl2v2, Venetoclax 1 nM
[10] = CBPVene-v5-Bcl2v2, Venetoclax 3.16 nM
[11] = CBPVene-v5-Bcl2v2, Venetoclax 10 nM
[12] = CBPVene-v5-Bcl2v2, Venetoclax 31.6 nM
[13] = CBPVene-v5-Bcl2v2, Venetoclax 316 nM

## CC1(C)CCC(CN2CCN(c3ccc(C(=O)NS(=O)(=O)c4ccc(NCC5CCOCC5)c([N+](=O)[O-])c4)c(Oc4cnc5[nH]ccc5c4)c3)CC2)=C(c2ccc(Cl)cc2)C1 [Venetoclax]
[1]
  Raw data Figure 5c: 19.6376 and 23.1796 and 21.4266
  Raw data of Independent repeat of CBPVene-v4 vs CBPVene-v4-LD3v1: 12.5143 and 15.3613 and 14.2991
[2]
  Normalized data Figure 5c: 33.2758 and 29.1991 and 22.5234
  Raw data Figure 5c: 32.1154 and 36.1941 and 32.5835
  Raw data of Independent repeat of CBPVene-v4 vs CBPVene-v4-LD3v1: 19.3224 and 24.3766 and 24.2685
[3]
  Normalized data Figure 5c: 89.5011 and 73.3407 and 58.8514
  Raw data Figure 5c: 86.38 and 90.9103 and 85.1375
  Raw data of Independent repeat of CBPVene-v4 vs CBPVene-v4-LD3v1: 49.6855 and 59.8551 and 68.5591
[4]
  Normalized data Figure 5c: 100
  Raw data Figure 5c: 96.5128 and 123.956 and 144.665
  Raw data of Independent repeat of CBPVene-v4 vs CBPVene-v4-LD3v1: 75.2259 and 81.7396 and 83.8142
[5]
  Normalized data Figure 5c: 92.1259 and 70.027 and 66.0891
  Raw data Figure 5c: 88.9133 and 86.8028 and 95.608
  Raw data of Independent repeat of CBPVene-v4 vs CBPVene-v4-LD3v1: 55.2813 and 57.5308 and 55.9265
[6]
  Normalized data Figure 5c: 41.115 and 38.8368 and 34.8585
  Raw data Figure 5c: 39.6812 and 48.1406 and 50.4281
  Raw data of Independent repeat of CBPVene-v4 vs CBPVene-v4-LD3v1: 23.1338 and 27.3241 and 29.5684
[7]
  Normalized data Figure 5c: 12.9494 and 11.4961 and 9.578
  Raw data Figure 5c: 12.4978 and 14.2501 and 13.8554
  Raw data of Independent repeat of CBPVene-v4 vs CBPVene-v4-LD3v1: 8.884 and 10.4059 and 11.3993
CBPVene-v5, Venetoclax 0.01 nM
  Raw data of Independent repeat of CBPVene-v5 vs CBPVene-v5-LD3v1: 29.6718 and 24.6839 and 26.501
CBPVene-v5, Venetoclax 1 nM
  Normalized data Figure 5c: 7.442 and 6.278 and 6.718
  Raw data Figure 5c: 29.5956 and 26.0853 and 29.9849
CBPVene-v5, Venetoclax 3.16 nM
  Normalized data Figure 5c: 9.477 and 7.971 and 8.021
  Normalized data Figure 5f: 5.255 and 4.508 and 3.901
  Raw data Figure 5c: 37.6876 and 33.119 and 35.8015
  Raw data Figure 5f: 30.3563 and 26.3908 and 26.6345
  Raw data of Independent repeat of CBPVene-v5 vs CBPVene-v5-LD3v1: 30.3563 and 26.3908 and 26.6345
CBPVene-v5, Venetoclax 10 nM
  Normalized data Figure 5c: 11.5779 and 11.0151 and 10.8723
  Normalized data Figure 5f: 9.191 and 6.8128 and 6.589
  Raw data Figure 5c: 46.0425 and 45.7651 and 48.5281
  Raw data Figure 5f: 53.0904 and 39.8802 and 44.9895
  Raw data of Independent repeat of CBPVene-v5 vs CBPVene-v5-LD3v1: 53.0904 and 39.8802 and 44.9895
CBPVene-v5, Venetoclax 31.6 nM
  Normalized data Figure 5c: 35.6775 and 32.4284 and 35.7596
  Normalized data Figure 5f: 4.7681 and 4.341 and 3.633
  Raw data Figure 5c: 141.881 and 134.732 and 159.612
  Raw data Figure 5f: 27.5418 and 25.4102 and 24.8086
  Raw data of Independent repeat of CBPVene-v5 vs CBPVene-v5-LD3v1: 27.5418 and 25.4102 and 24.8086
CBPVene-v5, Venetoclax 100 nM
  Normalized data Figure 5c: 85.9499 and 82.2485 and 75.1301
  Normalized data Figure 5f: 23.389 and 18.2031 and 16.6277
  Raw data Figure 5c: 341.802
  Raw data Figure 5f: 135.101
  Raw data of Independent repeat of CBPVene-v5 vs CBPVene-v5-LD3v1: 135.101 and 106.556 and 113.538
CBPVene-v5, Venetoclax 316 nM
  Normalized data Figure 5c: 100 and 99.2625
  Normalized data Figure 5f: 90.5991 and 73.5543 and 71.7832
  Raw data Figure 5c: 397.676 and 415.475 and 443.055
  Raw data Figure 5f: 523.324 and 430.565 and 490.151
  Raw data of Independent repeat of CBPVene-v5 vs CBPVene-v5-LD3v1: 523.324 and 430.565 and 490.151
CBPVene-v5, Venetoclax 1000 nM
  Normalized data Figure 5c: 94.7389 and 93.854 and 100
  Normalized data Figure 5f: 100
  Raw data Figure 5c: 376.754 and 389.94 and 446.347
  Raw data Figure 5f: 577.626 and 585.371 and 682.822
  Raw data of Independent repeat of CBPVene-v5 vs CBPVene-v5-LD3v1: 585.371 and 682.822
CBPVene-v5, Venetoclax 3160 nM
  Normalized data Figure 5c: 78.0027 and 76.1858 and 76.8944
  Normalized data Figure 5f: 79.8503 and 79.8999 and 73.1753
  Raw data Figure 5c: 310.198 and 316.533 and 343.216
  Raw data Figure 5f: 461.236 and 467.711 and 499.656
  Raw data of Independent repeat of CBPVene-v5 vs CBPVene-v5-LD3v1: 461.236 and 467.711 and 499.656
[8]
  Normalized data Figure 5c: 34.0541 and 31.651 and 32.0007
  Normalized data Figure 5f: 53.1633 and 46.1135 and 46.4962
  Raw data Figure 5c: 135.425 and 131.502 and 142.834
  Raw data Figure 5f: 307.085 and 269.935 and 317.486
[9]
  Normalized data Figure 5f: 20.7725 and 19.0354 and 15.7869
  Raw data Figure 5f: 37.9718 and 36.6065 and 35.2814
[10]
  Normalized data Figure 5f: 20.3227 and 21.226 and 17.4104
  Raw data Figure 5f: 37.1496 and 40.8191 and 38.9099
[11]
  Normalized data Figure 5f: 19.4559 and 21.7686 and 18.6086
  Raw data Figure 5f: 35.5651 and 41.8626 and 41.5876
[12]
  Normalized data Figure 5f: 37.718 and 36.6086 and 30.2912
  Raw data Figure 5f: 68.9479 and 70.401 and 67.6966
CBPVene-v5-Bcl2v2, Venetoclax 100 nM
  Normalized data Figure 5f: 81.9466 and 81.1265 and 85.7326
[13]
  Normalized data Figure 5f: 100
  Raw data Figure 5f: 182.798 and 192.307 and 223.486
